US10626115B2, “Fused pyrimidinone and triazinone derivatives containing bridged nitrogen, their process of preparation and their therapeutic uses as antifungal and/or antiparasitic agents” (UNIVERSITE DE NANTES, priority 2015, dated 2020)
In brackets after ≈: the same amount, converted by molar mass. Like-named read-outs stand apart in the source and are kept apart here.

Assays:
[1] = system: A. fumigatus susceptible strain ASFU38A; experiment: Antifungal susceptibility, spectrofluorimetric microdilution, ASFU38A; assay type: cell-based, Aspergillus fumigatus; conditions: for MIC: Aspergillus fumigatus, read-out: MIC values ASFU38A
Method: (§1) Eleven strains of A. fumigatus with various itraconazole susceptibility were used: • Five susceptible strains: ASFU7, ASFU35A, ASFU38A, ASFU76 and ASFU78. • Six itraconazole-resistant strains: ASFU77 (erg11 mutation), ASFU13, ASFU17, ASFU19, ASFU20, ASFU23.
(§2) Antifungal susceptibility was evaluated with a spectrofluorimetric microdilution method. MIC was the concentration that was able to inhibit 80% of fluorescence measured in the control wells.

[2] = system: Aspergillus fumigatus (ASFU7) spores; experiment: Murine invasive aspergillosis; assay type: in vivo; conditions: neutropenic Swiss mice, ASFU7 spores i.v., 10 mg/kg per os once a day for 5 days
Method: Transiently neutropenic female Swiss mice were used for experiments on systemic candidiasis and invasive aspergillosis.
Mice were inoculated intravenously with Aspergillus fumigatus (ASFU7) spores.
Treatment was administrated once a day (10 mg/kg per os) for 5 days. […] Fungal burden of the kidney was evaluated in dead animals during the experimentation or in animals sacrificed at the end of the experimentation.

[3] = system: A. fumigatus susceptible strain ASFU7; experiment: Antifungal susceptibility, spectrofluorimetric microdilution, ASFU7; assay type: cell-based, Aspergillus fumigatus; conditions: for MIC: Aspergillus fumigatus, read-out: MIC values ASFU7
Method: as §1, §2

[4] = system: A. fumigatus susceptible strain ASFU35A; experiment: Antifungal susceptibility, spectrofluorimetric microdilution, ASFU35A; assay type: cell-based, Aspergillus fumigatus; conditions: for MIC: Aspergillus fumigatus, read-out: MIC values ASFU35A
Method: as §1, §2

[5] = system: A. fumigatus itraconazole-resistant strain ASFU17; experiment: Antifungal susceptibility, spectrofluorimetric microdilution, ASFU17; assay type: cell-based, Aspergillus fumigatus; conditions: for MIC: Aspergillus fumigatus, read-out: MIC values ASFU17
Method: as §1, §2

[6] = system: A. fumigatus itraconazole-resistant strain ASFU19; experiment: Antifungal susceptibility, spectrofluorimetric microdilution, ASFU19; assay type: cell-based, Aspergillus fumigatus; conditions: for MIC: Aspergillus fumigatus, read-out: MIC values ASFU19
Method: as §1, §2

[7] = system: A. fumigatus itraconazole-resistant strain ASFU77 (erg11 mutation); experiment: Antifungal susceptibility, spectrofluorimetric microdilution, ASFU77; assay type: cell-based, Aspergillus fumigatus; conditions: for MIC: Aspergillus fumigatus, read-out: MIC values ASFU77
Method: as §1, §2

[8] = system: A. fumigatus itraconazole-resistant strain ASFU20; experiment: Antifungal susceptibility, spectrofluorimetric microdilution, ASFU20; assay type: cell-based, Aspergillus fumigatus; conditions: for MIC: Aspergillus fumigatus, read-out: MIC values ASFU20
Method: as §1, §2

[9] = system: A. fumigatus itraconazole-resistant strain ASFU13; experiment: Antifungal susceptibility, spectrofluorimetric microdilution, ASFU13; assay type: cell-based, Aspergillus fumigatus; conditions: for MIC: Aspergillus fumigatus, read-out: MIC values ASFU13
Method: as §1, §2

[10] = system: A. fumigatus susceptible strain ASFU76; experiment: Antifungal susceptibility, spectrofluorimetric microdilution, ASFU76; assay type: cell-based, Aspergillus fumigatus; conditions: for MIC: Aspergillus fumigatus, read-out: MIC values ASFU76
Method: as §1, §2

[11] = system: A. fumigatus susceptible strain ASFU78; experiment: Antifungal susceptibility, spectrofluorimetric microdilution, ASFU78; assay type: cell-based, Aspergillus fumigatus; conditions: for MIC: Aspergillus fumigatus, read-out: MIC values ASFU78
Method: as §1, §2

[12] = system: promastigote stage of a Leishmania mexicana strain; experiment: Anti-Trypanosomatidae activity, promastigote stage, spectrofluorimetric microdilution; assay type: cell-based; conditions: promastigote stage; 50% of control growth; read-out: L. mexicana (IC50 μM)
Method: Compounds were evaluated on the promastigote stage of a Leishmania mexicana strain using a spectrofluorimetric microdilution method. Inhibitory concentration 50 (IC50) was the concentration that inhibited 50% of the control growth.

[13] = system: A. fumigatus itraconazole-resistant strain ASFU23; experiment: Antifungal susceptibility, spectrofluorimetric microdilution, ASFU23; assay type: cell-based, Aspergillus fumigatus; conditions: for MIC: Aspergillus fumigatus, read-out: MIC values ASFU23
Method: as §1, §2

[14] = system: fluconazole-resistant C. albicans strain CAAL111 (efflux pump); experiment: microbe, parasite or virus in culture; assay type: cell-based; conditions: Candida albicans, read-out: MIC values CAAL111
Method: (§3) Eight strains of Candida spp. with various azoles-susceptibilities were used: • One fluconazole-susceptible C. albicans strain: CAAL93 • Two fluconazole-resistant C. albicans strains: CAAL111 (efflux pump) and CAAL117 (erg11 mutations+voriconazole-resistant) • five fluconazole-resistant Candida non albicans strains: C. krusei (CAKR7, CAKR8), C. glabrata (CAGL2), C. parapsilosis s.l. (CAPA1, CAPA2).
(§4) Antifungal susceptibility was evaluated with a spectrofluorimetric microdilution method.

[15] = system: fluconazole-resistant C. glabrata (CAGL2); experiment: microbe, parasite or virus in culture; assay type: cell-based; conditions: Nakaseomyces glabratus, read-out: MIC values CAGL2
Method: as §3, §4

[16] = system: fluconazole-resistant C. krusei (CAKR8); experiment: microbe, parasite or virus in culture; assay type: cell-based; conditions: Pichia kudriavzevii, read-out: MIC values CAKR8
Method: as §3, §4

[17] = system: fluconazole-resistant C. albicans strain CAAL117 (erg11 mutations+voriconazole-resistant); experiment: microbe, parasite or virus in culture; assay type: cell-based; conditions: for MIC: Candida albicans, read-out: MIC values CAAL117; for fold more active than voriconazole against CAAL117: compared with voriconazole
Method: as §3, §4

[18] = system: fluconazole-resistant C. krusei (CAKR7); experiment: microbe, parasite or virus in culture; assay type: cell-based; conditions: Pichia kudriavzevii, read-out: MIC values CAKR7
Method: as §3, §4

[19] = system: fluconazole-susceptible C. albicans strain: CAAL93; experiment: Antifungal susceptibility, spectrofluorimetric microdilution, CAAL93; assay type: cell-based; conditions: Candida albicans, read-out: MIC values CAAL93
Method: as §3, §4

[20] = system: fluconazole-resistant C. parapsilosis s.l. (CAPA2); experiment: microbe, parasite or virus in culture; assay type: cell-based; conditions: Lodderomyces parapsilosis, read-out: MIC values CAPA2
Method: as §3, §4

[21] = system: fluconazole-resistant C. parapsilosis s.l. (CAPA1); experiment: microbe, parasite or virus in culture; assay type: cell-based; conditions: Lodderomyces parapsilosis, read-out: MIC values CAPA1
Method: as §3, §4

[22] = concentration inhibiting 80% of control fluorescence
[23] = concentration inhibiting 50% of control fluorescence

Compound	MIC [1] [µg/mL]	MIC [3] [µg/mL]	MIC [4] [µg/mL]	MIC [5] [µg/mL]	MIC [6] [µg/mL]	MIC [7] [µg/mL]	MIC [8] [µg/mL]	MIC [9] [µg/mL]	MIC [10] [µg/mL]	MIC [11] [µg/mL]	MIC [14] [µg/mL]	MIC [15] [µg/mL]	MIC [16] [µg/mL]	MIC [17] [µg/mL]	fold more active than voriconazole against CAAL117 [17] [fold]	MIC [18] [µg/mL]	MIC [19] [µg/mL]	melting point [°C]	MIC [13] [µg/mL]	MIC [20] [µg/mL]	other results
CCC(C)n1ncn(-c2ccc(N3CCN(c4ccc(OCC5COC(Cn6cncn6)(c6ccc(Cl)cc6Cl)O5)cc4)CC3)cc2)c1=O (centres unmarked) [ITRA, Itraconazole, reference compound]	–	–	–	–	–	–	–	–	–	–	–	–	–	–	–	–	–	–	–	–	MIC values ASFU38A [1, 22]: 0.52 µg/mL (≈ 0.737 µM); survival ([2]; 14 days, p<0.01): did survive significantly longer; fungal burden of the kidney ([2]; p<0.05): significantly reduced; MIC values ASFU7 [3, 22]: 0.42 ± 0.04 µg/mL (≈ 0.595 µM); MIC values ASFU35A [4, 22]: 0.24 µg/mL (≈ 0.34 µM); MIC values ASFU17 [5, 22]: >7 µg/mL; MIC values ASFU19 [6, 22]: >7 µg/mL; MIC values ASFU77 [7, 22]: >100 µg/mL; MIC values ASFU20 [8, 22]: >7 µg/mL; MIC values ASFU13 [9, 22]: >70 µg/mL; MIC values ASFU76 [10, 22]: 0.50 ± 0.24 µg/mL (≈ 0.709 µM); MIC values ASFU78 [11, 22]: 0.31 µg/mL (≈ 0.439 µM); IC50 [12]: 2.5 ± 0.7 µM; MIC values ASFU23 [13, 22]: >7 µg/mL
C[C@@H](n1ncc2cc(-c3ccc(Cl)cc3)cn2c1=O)[C@](O)(Cn1cncn1)c1ccc(F)cc1F [Compound 48, 7-(4-Chlorophenyl)-3-[(1R,2R)-2-(2,4-difluorophenyl)-2-hydroxy-1-methyl-3-(1,2,4-triazol-1-yl)propyl]-3H-pyrrolo[1,2-d][1,2,4]triazin-4-one]	6.64 ± 1.1 (≈ 13.4 µM)	6.07 ± 0.05 (≈ 12.2 µM)	6.11 ± 0.85 (≈ 12.3 µM)	> 49	> 49	9.27 ± 1.05 (≈ 18.7 µM)	2.51 (≈ 5.05 µM)	2.53 (≈ 5.09 µM)	6.21 ± 0.18 (≈ 12.5 µM)	6.26 ± 0.73 (≈ 12.6 µM)	0.018 ± 0.005 (≈ 0.0362 µM)	0.061 ± 0.008 (≈ 0.123 µM)	0.079 (≈ 0.159 µM)	0.014 ± 0.001 (≈ 0.0282 µM)	100	0.019 ± 0.001 (≈ 0.0382 µM)	< 0.001	204 to 205	2.48 (≈ 4.99 µM)	–	MIC values against ITRA-resistant isolate carrying M220T mutation (ASFU77), in words [7]: in the micromolar range; activity against ITRA-resistant isolate ASFU20, in words [8]: active; activity against ITRA-resistant isolate ASFU13, in words [9]: active; activity against ITRA-resistant isolate ASFU23, in words [13]: active
C[C@@H](c1ncncc1F)[C@](O)(Cn1cncn1)c1ccc(F)cc1F [VOR, voriconazole, reference compound]	–	–	–	1.19 (≈ 3.39 µM)	1.86 (≈ 5.33 µM)	0.61 ± 0.04 (≈ 1.75 µM)	0.178 (≈ 0.51 µM)	0.136 (≈ 0.389 µM)	–	–	0.458 ± 0.196 (≈ 1.31 µM)	0.126 ± 0.003 (≈ 0.361 µM)	0.24 ± 0.07 (≈ 0.687 µM)	1.1 ± 0.1 (≈ 3.15 µM)	–	0.817 ± 0.007 (≈ 2.34 µM)	–	–	0.097 (≈ 0.278 µM)	0.36 ± 0.001 (≈ 1.03 µM)	MIC [1, 22]: 0.75 ± 0.2 µg/mL (≈ 2.15 µM); MIC [3, 22]: 0.15 ± 0.001 µg/mL (≈ 0.429 µM); MIC [4, 22]: 0.6 ± 0.08 µg/mL (≈ 1.72 µM); MIC [10, 22]: 0.64 ± 0.01 µg/mL (≈ 1.83 µM); MIC [11, 22]: 0.59 ± 0.01 µg/mL (≈ 1.69 µM); MIC [21]: 0.95 ± 0.13 µg/mL (≈ 2.72 µM); MIC [19, 23]: 0.005 ± 0.001 µg/mL (≈ 0.0143 µM)
C[C@@H](n1ncc2cc(-c3ccc([N+](=O)[O-])cc3)cn2c1=O)[C@](O)(Cn1cncn1)c1ccc(F)cc1F [Compound 50, 3-[(1R,2R)-2-(2,4-Difluorophenyl)-2-hydroxy-1-methyl-3-(1,2,4-triazol-1-yl)propyl]-7-(4-nitrophenyl)-3H-pyrrolo[1,2-d][1,2,4]triazin-4-one]	8.86 (≈ 17.5 µM)	8.31 ± 0.52 (≈ 16.4 µM)	6.59 ± 0.04 (≈ 13 µM)	> 50	> 50	> 100	21.3 (≈ 42 µM)	3.08 (≈ 6.07 µM)	8.23 ± 2.23 (≈ 16.2 µM)	6.4 ± 1.07 (≈ 12.6 µM)	0.017 ± 0.007 (≈ 0.0335 µM)	0.074 ± 0.038 (≈ 0.146 µM)	0.039 ± 0.027 (≈ 0.0769 µM)	0.018 ± 0.001 (≈ 0.0355 µM)	100	0.066 ± 0.009 (≈ 0.13 µM)	< 0.001	130 to 131	43 (≈ 84.7 µM)	–	–
OC(Cn1cncn1)(Cn1cncn1)c1ccc(F)cc1F [FLC, fluconazole, reference compound]	–	–	–	–	–	–	–	–	–	–	> 30	10.1 ± 0.61 (≈ 33 µM)	> 10	> 3	–	> 3	–	–	–	> 30	MIC [21]: > 30 µg/mL; MIC [19, 23]: 0.036 ± 0.02 µg/mL (≈ 0.118 µM)
